Like-named read-outs stand apart in the source and are kept apart here.
How the values were obtained:
[1] = tested on: Pa16c cells; assay: Pa16c cell proliferation assay (resazurin); assay type: cell-based; conditions: Table 2, inhibition of cell proliferation
Description: Pa16c cells are obtained from Dr. Channing Der, University of North Carolina at Chapel Hill. Briefly, cells are grown in Dulbecco's Modified Eagle Medium supplemented with 10% characterized fetal bovine serum (Invitrogen, Carlsbad, CA) and 1% Penicillin/Streptomycin/L-Glutamine at 37° C., 5% CO2, and 95% humidity. Cells are expanded until reaching 70-95% confluency at which point they are sub-cultured or harvested for assay use. A serial dilution of test compound is dispensed into a 384-well black clear bottom plate in triplicate. 750 cells are added per well in 50 μL complete growth medium in the 384-well plate. Plates are incubated for 67 to 72 h at 37° C., 5% CO2, and 95% humidity. At the end of the incubation, 40 μL of a […] solution of resazurin (Sigma, St. Louis, MO) in PBS is added to each well of the plate and plates are incubated for an additional 18 to 24 h at 37° C., 5% CO2, and 95% humidity. Plates are read on a Synergy2 or equivalent reader (Biotek, Winooski, VT) using an excitation of 540 nm and an emission of 600 nm. Data is analyzed using Prism software (Graphpad, San Diego, CA) to calculate IC50 values.

[2] = biological target: T1, C-Raf kinase (Homo sapiens, UniProt P04049, Y340D/Y341D); assay: Biochemical assay for C-Raf (coupled pyruvate kinase/lactate dehydrogenase)
T1 construct: C-Raf residues 306-end; Y340D, Y341D with N-; purchased Sigma
T1 sequence (P04049 307-648 Y340D/Y341D): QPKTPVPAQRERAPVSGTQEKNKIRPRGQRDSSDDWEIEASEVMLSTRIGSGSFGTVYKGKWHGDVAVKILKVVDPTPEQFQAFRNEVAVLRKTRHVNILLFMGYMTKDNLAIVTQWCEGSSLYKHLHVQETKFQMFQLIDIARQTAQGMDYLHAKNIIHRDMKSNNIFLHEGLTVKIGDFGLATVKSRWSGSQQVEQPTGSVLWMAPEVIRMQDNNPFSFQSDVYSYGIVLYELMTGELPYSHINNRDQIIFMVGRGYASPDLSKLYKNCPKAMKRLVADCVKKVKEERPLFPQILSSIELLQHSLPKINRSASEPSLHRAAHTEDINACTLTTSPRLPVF

[3] = tested on: HPAF-II cells; assay: HPAF-II cell proliferation assay (resazurin); assay type: cell-based; conditions: Homo sapiens
Description: HPAF-II cells (catalog #CRL-1997) are obtained from the American Type Culture Collect (ATCC, Manassas, VA). Briefly, cells are grown in Minimum Essential Media supplemented with 10% characterized fetal bovine serum (Invitrogen, Carlsbad, CA) and 1% Penicillin/Streptomycin/L-Glutamine at 37° C., 5% CO2, and 95% humidity. Cells are expanded until reaching 70-95% confluency at which point they are sub-cultured or harvested for assay use. A serial dilution of test compound is dispensed into a 384-well black clear bottom plate in triplicate. 750 cells are added per well in 50 μL complete growth medium in the 384-well plate. Plates are incubated for 115 to 120 h at 37° C., 5% CO2, and 95% humidity. At the end of the incubation, 40 μL of a […] solution of resazurin (Sigma, St. Louis, MO) in PBS is added to each well of the plate and plates are incubated for an additional 18 to 24 h at 37° C., 5% CO2, and 95% humidity. Plates are read on a Synergy2 or equivalent reader (Biotek, Winooski, VT) using an excitation of 540 nm and an emission of 600 nm. Data is analyzed using Prism software (Graphpad, San Diego, CA) to calculate IC50 values.

[4] = tested on: MiaPaca-2 cells; assay: MiaPaca-2 cell proliferation assay (resazurin); assay type: cell-based; conditions: Homo sapiens, MIA PaCa-2; Table 2, inhibition of cell proliferation; read-out: MiaPaca-2
Description: MiaPaca-2 cells (catalog #CRL-1420) are obtained from the American Type Culture Collect (ATTC, Manassas, VA). Briefly, cells were grown in DMVEM supplemented with […] fetal bovine serum (Invitrogen, Carlsbad, CA), 2.5% New Zealand sourced horse serum and 1% Penicillin/Streptomycin/L-Glutamine at 37° C., […], and […]. Cells are expanded until reaching […] at which point they are sub-cultured or harvested for assay use. For assays completed in 96-well plates, a serial dilution of test compound is dispensed into a 96-well black clear bottom plate in triplicate. Three thousand cells are added per well in 200 μL complete growth medium in the 96-well plate. Plates are incubated for 67 to 72 h at 37° C., 5% CO2, and 95% humidity. At the end of the incubation, 40 μL of a […] solution of resazurin (Sigma, St. Louis, MO) in PBS is added to each well of the plate and plates are incubated for an additional 5 to 6 h at 37° C., 5% CO2, and 95% humidity. For 384-well assays, a threefold, 8-point serial dilution of compound was spotted column wise into a 384 well black, clear bottom, tissue culture treated plate using the Beckman Coulter Echo 650. Likewise, a threefold, 8-point serial dilution of cobimetinib was spotted row wise into the 384 well black, clear bottom plate containing compound. DMSO concentration was constant across all wells at 0.4%. Seven hundred fifty cells are added per well in 50 μL complete growth medium in each 384-well plate. Plates are incubated for 67 to 72 h at 37° C., 5% CO2, and 95% humidity. At the end of the incubation, 10 μL of a 440 μM solution of resazurin (Sigma, St. Louis, MO) in PBS is added to each well of the plate and plates are incubated for an additional 4 to 6 h at 37° C., 5% CO2, and 95% humidity. Plates are read on a Synergy2 or equivalent reader (Biotek, Winooski VT) using an excitation of 540 nm and an emission of 600 nm. Data is analyzed using Prism software (Graphpad, San Diego, CA) to calculate IC50 values.

[5] = biological target: T2, B-Raf kinase (Homo sapiens, UniProt P15056); assay: Biochemical assay for B-Raf (coupled pyruvate kinase/lactate dehydrogenase)
T2 construct: purchased Sigma
T2 sequence (P15056 416-766): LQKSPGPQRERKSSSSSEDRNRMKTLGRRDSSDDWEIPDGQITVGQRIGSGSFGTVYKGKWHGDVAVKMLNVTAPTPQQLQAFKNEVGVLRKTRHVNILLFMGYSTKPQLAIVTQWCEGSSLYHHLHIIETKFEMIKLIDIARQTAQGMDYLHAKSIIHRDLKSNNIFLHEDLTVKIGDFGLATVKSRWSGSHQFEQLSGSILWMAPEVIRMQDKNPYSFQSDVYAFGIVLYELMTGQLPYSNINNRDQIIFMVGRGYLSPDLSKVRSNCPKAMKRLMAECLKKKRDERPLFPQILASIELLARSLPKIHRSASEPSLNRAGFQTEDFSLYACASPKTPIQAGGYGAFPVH

[6] = tested on: HCT-116 cells; assay: HCT-116 cell proliferation assay (resazurin); assay type: cell-based; conditions: Homo sapiens
Description: HCT-116 cells (catalog #CCL-247) are obtained from the American Type Culture Collect (ATCC, Manassas, VA). Briefly, cells are grown in McCoy's 5A supplemented with 10% characterized fetal bovine serum (Invitrogen, Carlsbad, CA) and 1% Penicillin/Streptomycin/L-Glutamine at 37° C., 5% CO2, and 95% humidity. Cells are expanded until reaching 70-95% confluency at which point they are sub-cultured or harvested for assay use. A serial dilution of test compound is dispensed into a 384-well black clear bottom plate in triplicate. 375 cells are added per well in 50 μL complete growth medium in the 384-well plate. Plates are incubated for 67 to 72 h at 37° C., 5% CO2, and 95% humidity. At the end of the incubation, 40 μL of a […] solution of resazurin (Sigma, St. Louis, MO) in PBS is added to each well of the plate and plates are incubated for an additional 4 to 5 h at 37° C., 5% CO2, and 95% humidity. Plates are read on a Synergy2 or equivalent reader (Biotek, Winooski, VT) using an excitation of 540 nm and an emission of 600 nm. Data is analyzed using Prism software (Graphpad, San Diego, CA) to calculate IC50 values.

[7] = Table 1, inhibition of biochemical activity, read-out: CRAF
[8] = Table 2, inhibition of cell proliferation, read-out: HPAF-II
[9] = Table 1, inhibition of biochemical activity, read-out: BRAF
[10] = Table 2, inhibition of cell proliferation, read-out: HCT-116

| SMILES | IC50 [1] [nM] | IC50 [2, 7] [nM] | IC50 [3, 8] [nM] | IC50 [4] [nM] | IC50 [5, 9] [nM] | IC50 [6, 10] [nM] | IC50 ([2]; Table 4, read-out: CRAF IC50) [nM] | IC50 ([3]; HPAF-II, Table 4, read-out: HPAF-II IC50) [nM] | IC50 ([5]; Table 4, read-out: BRAF IC50) [nM] | IC50 ([6]; HCT-116, Table 4, read-out: HCT-116 IC50) [nM] |
| --- | --- | --- | --- | --- | --- | --- | --- | --- | --- | --- |
| Cc1ccc(NC(=O)c2cc(C(F)(F)F)cnn2)cc1-c1ccnc(-c2ccnc(C(N)=O)c2)c1 [Example 3, 4-(2-methyl-5-(5-(trifluoromethyl)pyridazine-3-carboxamido)phenyl)-[2,4′-bipyridine]-2′-carboxamide] | < 100 | < 100 | 100 to 500 | < 100 | < 100 | < 100 | – | – | – | – |
| Cc1ccc(NC(=O)c2ccc(C(F)(F)F)nc2)cc1-c1ccnc(-c2ccnc(C(=O)NC3CC3)c2)c1 [Example 5] | – | 100 to 500 | – | 500 to 1000 | 1000 to 10000 | 100 to 500 | – | – | – | – |
| Cc1cc(-c2cc(NC(=O)c3cc(C(F)(F)F)cnn3)ccc2C)cc(-c2ccnc(C(N)=O)c2)n1 [Example 7] | 100 to 500 | < 100 | 100 to 500 | 100 to 500 | 100 to 500 | 100 to 500 | – | – | – | – |
| CNC(=O)c1cc(-c2cc(-c3cc(NC(=O)c4cc(C5CC5)cnn4)ccc3C)nc(NCCO)n2)ccn1 [Example 8] | 1000 to 10000 | < 100 | 1000 to 10000 | 500 to 1000 | < 100 | 100 to 500 | – | – | – | – |
| CNC(=O)c1cc(-c2cncc(-c3cc(NC(=O)c4ccc(C(F)(F)F)nc4)ccc3C)c2)ncn1 [Example 10] | – | 100 to 500 | – | 1000 to 10000 | 100 to 500 | – | – | – | – | – |
| Cc1ccc(NC(=O)c2ccc(C(F)(F)F)nc2)cc1-c1cncc(-c2ccnc(C(N)=O)c2)c1 [Example 11] | – | 100 to 500 | – | 1000 to 10000 | 500 to 1000 | – | – | – | – | – |
| CNC(=O)c1cc(-c2cc(-c3cc(NC(=O)c4cncc(C(F)(F)F)c4)ccc3C)ccn2)ccn1 [Example 12] | 1000 to 10000 | < 100 | 1000 to 10000 | 1000 to 10000 | < 100 | 1000 to 10000 | – | – | – | – |
| CNC(=O)c1cc(-c2cc(-c3cc(NC(=O)c4cncc(C(F)(F)F)c4)ccc3C)cc(C)n2)ccn1 [Example 13] | 1000 to 10000 | < 100 | 1000 to 10000 | 1000 to 10000 | 100 to 500 | 1000 to 10000 | – | – | – | – |
| CNC(=O)c1cc(-c2cc(-c3cc(NC(=O)c4cncc(C(C)(F)F)c4)ccc3C)ccn2)ccn1 [Example 14] | – | < 100 | 1000 to 10000 | 1000 to 10000 | < 100 | 500 to 1000 | – | – | – | – |
| CNC(=O)c1cc(-c2cc(-c3cc(NC(=O)c4cncc(C(C)(F)F)c4)ccc3C)cc(C)n2)ccn1 [Example 15] | – | < 100 | – | 1000 to 10000 | 100 to 500 | – | – | – | – | – |
| CNC(=O)c1cc(-c2cncc(-c3cc(NC(=O)c4cc(C(F)(F)F)cnn4)ccc3C)c2)ccn1 [Example 16] | 1000 to 10000 | < 100 | 1000 to 10000 | 500 to 1000 | < 100 | 500 to 1000 | – | – | – | – |
| CNC(=O)c1cc(-c2cc(-c3cc(NC(=O)c4cc(C#N)cnn4)ccc3C)cc(N[C@H](C)CO)n2)ccn1 [Example 50] | – | < 100 | 500 to 1000 | 100 to 500 | < 100 | 100 to 500 | – | – | – | – |
| CNC(=O)c1cc(-c2cc(N)cc(-c3cc(NC(=O)c4cc(C(F)(F)F)cnn4)ccc3C)c2)ccn1 [Example 51] | – | < 100 | 1000 to 10000 | 500 to 1000 | 100 to 500 | 500 to 1000 | – | – | – | – |
| CNC(=O)c1cc(-c2cc(-c3cc(NC(=O)c4cc(C(N)=O)cnn4)ccc3C)cc(OCCO)n2)ccn1 [Example 52, N^3-(3-(6-(2-hydroxyethoxy)-2′-(methylcarbamoyl)-[2,4′-bipyridin]-4-yl)-4-methylphenyl)pyridazine-3,5-dicarboxamide] | – | < 100 | 1000 to 10000 | 1000 to 10000 | 100 to 500 | 1000 to 10000 | – | – | – | – |
| CNC(=O)c1cc(-c2cc(-c3cc(NC(=O)c4cc(C#N)cnn4)ccc3C)cc(NCCO)n2)ccn1 [Example 53] | – | < 100 | 100 to 500 | 100 to 500 | < 100 | 100 to 500 | – | – | – | – |
| CNC(=O)c1cc(-c2cc(-c3cc(NC(=O)c4cccc(C(C)(C)C#N)c4)ccc3C)cc(OCCO)n2)ccn1 [reference compound] | – | – | – | – | – | – | < 100 | 500 to 1000 | < 100 | 100 to 500 |

Source: patent US20260176260A1, “DUAL RAF AND TUBULIN INHIBITORS AND METHODS OF USE THEREOF” (Deciphera Pharmaceuticals, LLC, priority 2023, published 2026)
